Measured values published in US20010051652A1, “Method of treating paralysis of the extremities caused by cerebral infarction” (Ajinomoto Co., Inc., priority 1999, published 2001).

Legend:
[1] = cited from earlier work
male Wister rats [2] = assay: Clockwise rotation after middle cerebral artery ischemia-reperfusion; assay type: in vivo, rat; settings: for Clockwise rotation, during ischemia (rats affected/total): baseline before melatonin administration
Text: Eight to ten-week-old male Wister rats weighing of 250 to 300 g were used. Under halothane anesthesia, a 24 G (24 gauge) plug was inserted from a right external carotid artery of each rat so as to arrive to a starting site of its middle cerebral artery of the circle of Willis through its internal carotid artery. Immediately, the anesthesia was stopped, and the rat was dehypnotized. It was confirmed that the rat rotated clockwise, had ischemia, and had paralysis of its left upper limb. After one hour, the plug was removed from the rat under halothane anesthesia, and the blood flow was thereby reperfused. In the melatonin administration group, 1 ml of a physiological saline solution containing 6 mg/kg of melatonin was injected using a probe into the stomach of each rat each day for 10 days starting 24 hours after the reperfusion. In the control group, 1 ml of a physiological saline solution was similarly injected into each rat. After 19 days, the presence of adduction/pronation of the left upper limb and the clockwise rotation were determined for each rat. To assess the clockwise rotation, each rat was placed on a round plate 2 m in diameter for 5 minutes. If the rat had paralysis of the left upper limb, it rotated clockwise. In an experiment similar to that as described in Example 1, the adduction/pronation of the left upper limb and the clockwise rotation were determined 11 days after the ischemic incidence.

CAl hippocampal neurons = settings: intraperitoneally administered, especially prior to cerebral ischemia or during reperfusion; cited from earlier work
male Wister rats [3] = assay: Adduction/pronation of the left upper limb after middle cerebral artery ischemia-reperfusion; assay type: in vivo, rat; settings: for Adduction/pronation, during ischemia (rats affected/total): baseline before melatonin administration
Text: Eight to ten-week-old male Wister rats weighing of 250 to 300 g were used. Under halothane anesthesia, a 24 G (24 gauge) plug was inserted from a right external carotid artery of each rat so as to arrive to a starting site of its middle cerebral artery of the circle of Willis through its internal carotid artery. Immediately, the anesthesia was stopped, and the rat was dehypnotized. It was confirmed that the rat rotated clockwise, had ischemia, and had paralysis of its left upper limb. After one hour, the plug was removed from the rat under halothane anesthesia, and the blood flow was thereby reperfused. In the melatonin administration group, 1 ml of a physiological saline solution containing 6 mg/kg of melatonin was injected using a probe into the stomach of each rat each day for 10 days starting 24 hours after the reperfusion. In the control group, 1 ml of a physiological saline solution was similarly injected into each rat. After 19 days, the presence of adduction/pronation of the left upper limb and the clockwise rotation were determined for each rat. To assess the adduction/pronation of the left upper limb, each rat was hung via its tail, and the movement of the left upper limb was observed. If the rat could not voluntarily move the left upper limb, and had paralysis of the left upper limb, the left upper limb was considered to show adduction/pronation. In an experiment similar to that as described in Example 1, the adduction/pronation of the left upper limb and the clockwise rotation were determined 11 days after the ischemic incidence.

male Wister rats [4] = assay: Area of the cerebral infarcted lesion; assay type: in vivo, rat; settings: Example 3; rats of Example 2, after 11 days; section showing maximum lesion
Method: Using the rats from the experiment of Example 2, the area of the cerebral infarcted lesion in each rat after 11 days was determined. The area of the cerebral infarcted lesion was determined by preparing a consecutive section of 50 μm from a cerebral infarcted region of about 3 mm and subjecting the section showing a maximum lesion to the NIH measurement program to determine the area of the maximum lesion.

[5] = Example 1, 6 mg/kg into the stomach each day for 10 days starting 24 hours after reperfusion
[6] = Example 2, experiment similar to Example 1

COc1ccc2[nH]cc(CCNC(C)=O)c2c1 [Melatonin, N-[2-(5-methoxy-1H-indol-3-yl)ethyl]acetamide]
passage into the brain ([1]; intravenously administered): pass into the brain | passage through the blood-brain barrier ([1]; orally administered): passes through the blood-brain barrier | Clockwise rotation, 19 days after ischemia (rats affected/total) (male Wister rats [2]; [5]): 1/4 | Clockwise rotation, during ischemia (rats affected/total) (male Wister rats [2]; Example 1): 4/4 | Clockwise rotation, during ischemia (rats affected/total) (male Wister rats [2]; Example 2): 7/7 | Clockwise rotation, 11 days after ischemia (rats affected/total) (male Wister rats [2]; [6]): 0/7 | protection of CAl hippocampal neurons against ischemic injury (CAl hippocampal neurons): protects CAl hippocampal neurons against ischemic injury | Adduction/pronation, 19 days after ischemia (rats affected/total) (male Wister rats [3]; [5]): 1/4 | Adduction/pronation, during ischemia (rats affected/total) (male Wister rats [3]; Example 1): 4/4 | Adduction/pronation, during ischemia (rats affected/total) (male Wister rats [3]; Example 2): 7/7 | Adduction/pronation, 11 days after ischemia (rats affected/total) (male Wister rats [3]; [6]): 3/7 | Area of the infarcted lesion, cerebral cortex (male Wister rats [4]): 5.47 mm^2 | Area of the infarcted lesion, striatum (male Wister rats [4]): 7.15 mm^2
